Assay results reported in US5582813A, “Iodine-containing fluorocarbon contrast agents” (Alliance Pharmaceutical Corp., priority 1993, dated 1996).

Assays:
[1] = Toxicity, intraperitoneal injection in mice; type: in vivo; conditions: mouse, in vivo, ip; mice, intraperitoneal, g/kg animal weight; read-out: tolerance
From the text: (§1) Beyond radiopacity and stability, the compounds used in the present invention are biocompatible. They are tolerated in high doses in animals. For example, in intraperitoneal administration in mice, the mice were still alive at the end of the protocol, one month post injection, even after doses of up to 45 g/kg of the iodinated fluorinated compounds used in the present invention had been injected. Further, in intravenous administration to mice of the compounds used in the present invention in emulsified form, the mice lived past the end of the protocol, one month post injection of doses up to 8 g/kg.
(§2) In order to determine the toxicity of Compound IA, we injected mice intraperitoneally with the compound. In the experiment, 10 mice were interperitoneally injected with a dose of about 45 g/kg per animal of Compound IA.
(§3) Compound IIIA was also tested for toxicity, following the procedure described in Example 2. A similar tolerance of greater than 45 g/kg animal weight was observed.
(§4) Each of the composition were intraperitoneally injected into mice at doses of 50 g/kg. All of the mice so injected survived and were alive past the end of the protocol, 30 days post injection.

[2] = In vitro opacity to X-rays of compounds in hexane solution (Philips Tomoscan LX); type: physicochemical; conditions: 0.34 mol/L in hexane; 120 kV, 175 mA
Protocol: In order to determine the relative radiopacity of the compounds used in the present invention to X-rays, we undertook an in vitro study to compare the radiopacity of the above compound (IA) in relation to the radiopacity of perfluorooctyl bromide.
A solution of Compound IA was prepared having a concentration of 0.34 mol/L in hexane. A second solution of perfluorooctyl bromide (PFOB) with the same concentration in hexane was also prepared. The opacity to X-rays of the respective compounds in the hexane solutions was determined using a Philips Tomoscan LX 120 kV, 175 mA apparatus.
Following the procedure described in Example 1, we also measured the opacity to X-rays of Compound IIIA. As described, a solution of Compound IIIA was prepared at a concentration of 0.34 mol/L in hexane.
We also measured the radiopacity of each of the compositions using the in vitro test described in Example 1, where 0.34 mol/L solutions of the compositions were prepared in hexane and scanned using a Philips Tomoscan LX 120 kV, 175 mA apparatus.

liver = test: In vivo radiopacity, rabbit liver imaging; set-up: species or system rabbits; conditions: 0.39 g of Compound IA
Protocol: In order to determine the ability of the compositions of the present invention to operate as effective contrast enhancement agents, we undertook an in vivo study in rabbits to image their livers.
In the study, 3 rabbits were injected with the emulsion of Example 5 at a dose of 3 mL of emulsion per kg of animal, i.e., 2.34 g/kg (4.2 mM of Compound IA), at the rate of 0.5 mL/min.
The radiopacity of the liver and spleen of each rabbit was then measured. The animals were held in a cage and radiopacity was measured using a Philips Tomoscan LX scanner at 120 kV and 175 mA, with continuous 5 mm scans slice with 7 mm intervals. The duration of each scan was 1.2 seconds. These measurements were taken before the injection, then at 24 hours, 48 hours, 7 days, 15 days, and 30 days after the injection.
The results from this study are shown in FIG. 2, which is a bar graph showing the comparison between the radiopacity of the liver (as determined by the increase in Hounsfield units) observed with the emulsion of Example 5 and a PFOB emulsion (Example 6), at 24 hours and 48 hours after injection. The concentration of the emulsion of Example 5 was at a dose of […]. The concentration of the PFOB emulsion was at a dose of 2.7 g/kg body weight (5.4 mM of Perflubron/kg).

mice = test: Toxicity, intraperitoneal injection in mice; type: in vivo; conditions: 10 mice, about 45 g/kg, one month
From the text: as §1, §2, §3, §4

Row | Structure (SMILES) | MTD [1] [mg/kg] | opacity to X-rays (in words) [2] | amount of Perflubron giving equivalent contrast enhancement, relative to Compound IA (liver) [times] | survival after intraperitoneal injection (mice) | radiopacity relative to PFOB [2]
1 | CCCCCCC(I)=CC(F)(F)C(F)(F)C(F)(F)C(F)(F)C(F)(F)C(F)(F)C(F)(F)C(F)(F)F [Compound IIIA, C8 F17 --CH=CI--C6 H13] | > 45000 | A similar opacity was observed for Compound IIIA as was observed for Compound IA |  |  | 
2 | CCCCCCC(I)=CC(F)(F)C(F)(F)C(F)(F)C(F)(F)C(F)(F)C(F)(F)F [Compound IA, C6 F13 --CH=CI--C6 H13] |  |  | 7 | all animals survived and were thriving, showing no ill effects | approximately four
